What was measured:
[1] = MMV: MTT Cytotoxicity Assay Day 3 pi, U87-CD4-CCR5 cells, % cell death @ 5mM compound; format: toxicity, cell-based; details: human, u87-cd4-ccr5, 5000 µM
[2] = MMV: MTT Cytotoxicity Assay Day 7 pi of Assay #7 (compound washed out Day 1 pi), U87-CD4-CXCR4 cells, % cell death @ 5mM compound; format: toxicity, cell-based; details: human, u87-cd4-cxcr4, 5000 µM
[3] = MMV: MTT Cytotoxicity Assay Day 3 pi, U87-CD4-CXCR4 cells, % cell death @ 5mM compound; format: toxicity, cell-based; details: human, u87-cd4-cxcr4, 5000 µM
[4] = MMV: MTT Cytotoxicity Assay Day 7 pi of Assay #6 (compound washed out Day 1 pi), U87-CD4-CCR5 cells, % cell death @ 5mM compound; format: toxicity, cell-based; details: human, u87-cd4-ccr5, 5000 µM
[5] = tested on: Human immunodeficiency virus 1; assay: MMV: HIV JRFL CCR5-tropic replication-competent virus, virus & compound washed out Day 1 pi, P24 ELISA Day 7 pi, U87-CD4-CCR5, % inhibition at 5 mM compound; format: functional; design: dose or concentration left out as unconfirmed; details: Human immunodeficiency virus 1, JR-FL
[6] = MMV: MTT Cytotoxicity Assay Day 7 pi of Assay #11 (NO washout), U87-CD4-CXCR4 cells, % cell death @ 5mM compound; format: toxicity, cell-based; details: human, u87-cd4-cxcr4, 5000 µM
[7] = MMV: MTT Cytotoxicity Assay Day 7 pi of Assay #10 (NO washout), U87-CD4-CCR5 cells, % cell death @ 5mM compound; format: toxicity, cell-based; details: human, u87-cd4-ccr5, 5000 µM

Compound	% Cell Death [1]	% Cell Death [2]	% Cell Death [3]	% Cell Death [4]	inhibition [5] [%]	% Cell Death [6]	% Cell Death [7]
Cc1cccc(Nc2nc(N)c3ccccc3n2)c1.Cl	7	-15	43	28	5	71	43
COc1ccc(-c2nc(NC(=O)CS(=O)(=O)c3ccc(F)cc3)sc2C)cc1	41	9	29	-7	-1	71	10
CCn1c(SCC(=O)Nc2cc(C(F)(F)F)ccc2Cl)nc2ccccc2c1=O	-1	-27	81	23	8	17	19
CCCCCCc1cc2cc(-c3nc4ccccc4[nH]3)c(=Nc3ccccc3C)oc2cc1O	31	-2	25	15	4	53	44
COc1ccc(C2c3ccc4ccccc4c3Oc3ncn(CCCN(C)C)c(=N)c32)cc1 (stereo not drawn)	15	-12	39	-31	–	-61	-3
Cc1c(C)n(Cc2ccc(F)cc2)c2ccc(C(=O)NCc3ccco3)cc12	106	18	95	78	–	103	146
Cc1ccc(-c2cc3nc4c(c(O)n3n2)CCCC4)cc1	70	52	56	24	–	97	113
CCCc1c(CC)c(=N)c2ccccc2n1C	33	-9	21	-10	–	-23	-7
CCOc1ccc(C2N(C)c3ccccc3N2C)cc1	92	98	79	105	–	100	115
CCN(CC)CCNc1ccnc2cc(Cl)ccc12	4	-5	36	21	–	-13	17
COc1ccc2c(c1)OC(O)(C(F)(F)C(F)(F)F)CC2=O (stereo not drawn)	42	4	47	37	–	88	62
Clc1ccc2[nH]c3c(NCCCN4CCOCC4)ncnc3c2c1	110	91	100	105	–	118	141
CCOc1ccc(N2C(N)=NC(N)=NC2(C)C)cc1.Cl	56	35	57	56	–	-36	135
O=C(Nc1ccc(N2CCCCC2)c(Cl)c1)c1ccc(Br)o1	97	53	61	26	–	99	76
OC(CNC1CCCCC1)Cn1c2ccccc2c2ccccc21 (stereo not drawn)	-3	-20	14	13	–	-3	35
CN(N=O)C1=C(NC2CCCCC2)C(=O)c2ccccc2C1=O	41	36	45	-53	–	15	30
CC(C)c1ccc(CNCC(O)c2ccccc2)cc1.Cl (stereo not drawn)	-53	-18	29	-1	–	3	14
CCc1ccc(CNCC(O)c2ccccc2)cc1.Cl (stereo not drawn)	-25	28	37	-3	–	38	2
COc1ccc(CCn2c(=N)c(C(=O)NCc3cccnc3)cc3c(=O)n4cccc(C)c4nc32)cc1	1	35	15	32	–	8	4
O=C(Nc1ccccc1O)c1ccc(-c2ccc(Cl)cc2Cl)o1	-37	66	-23	34	–	64	11
COc1cccc(-c2nn(C)c3sc(C(=O)NCCN4CCN(c5ccccc5F)CC4)cc23)c1	21	-4	64	2	–	13	33
COc1ccc(N2CCN(C(CNC(=O)CC(C)(C)C)c3ccc4c(c3)OCO4)CC2)cc1 (stereo not drawn)	-2	22	38	6	–	37	44
CCOc1c(Cl)cc(CNCC(O)c2ccccc2)cc1OC (stereo not drawn)	14	-17	21	20	–	-40	2
CCN(Cc1ccccc1)C1CCN(Cc2cc(Br)ccc2O)CC1.O=C(O)C(=O)O	-5	0	27	6	–	-25	20
CCOC(=O)c1cn(CC)c2cc(N3CCCCC3)c(F)cc2c1=O	106	97	101	99	–	103	115
COc1ccc(-c2nonc2NC(=O)c2cccc(C)c2)cc1OC	13	-11	11	-21	–	-3	-7
O=C(Nc1ccc(Cl)cc1)N1CCN(c2ccc3nncn3n2)CC1	108	87	22	83	–	98	92
CN1CCN(c2nc(Nc3ccc(O)cc3)nc3ccccc23)CC1.Cl	11	-23	32	-8	–	110	43
O=C(CCc1ccccc1)c1ccccc1OCC(O)CN1CCCCC1 (stereo not drawn)	53	77	44	12	–	93	136
